“Also recorded” adds a separate entry of the source.
Columns and labels:
AlinCSP1-3 = assay: Fluorescence competitive binding assay, statements for the three CSPs together; design: species or system Adelphocoris lineolatus
Protocol: (§1) Fluorescence binding assays were performed on an F-380 fluorescence spectrophotometer (Tianjin, China) in a 1 cm light path quartz cuvette. The slit width used for excitation and emission was both 10 nm. The fluorescent probe N-phenyl-1-naphthylamine (1-NPN) was dissolved in methanol with a 1 mM stock solution. 1-NPN was excited at 337 nm and emission spectra were recorded between 390 nm and 530 nm.
(§2) All values reported were obtained from three independent measurements.
(§3) For determining binding constants, the intensity values corresponding to the maximum fluorescence emission were plotted against free ligand concentration. Bound ligand was evaluated from the values of fluorescence intensity assuming the protein was 100% active, with a stoichiometry of 1∶1 protein:ligand at saturation. The curves were linearized using Scatchard Plot. Dissociation constants of the competitors were calculated from the corresponding IC50 values, using the equation: KD = [IC50]/(1+[1-NPN]/K1-NPN), where [1-NPN] is the free concentration of 1-NPN and K1-NPN is the dissociation constant of the AlinCSP1-3/1-NPN complex.

A. lineolatus antennae = assay: Electroantennogram (EAG) recordings; design: species or system Adelphocoris lineolatus; conditions: normalized to 2-octanone; for EAG response in words: male and female adult antennae, 10% (v/v) in paraffin oil, good ligand = more than 50% of 2-octanone response; for EAG response, male versus female antennae: Student t-test between sexes
Source text: Electrophysiological (EAG) recordings from each sex of adult individuals were made using Ag-AgCl glass pipette electrodes filled with 3 M KCl solution [69], [70]. The insects were anaesthetized by chilling, the antenna was amputated at the base and the tip of the antenna was cut off. The excised antenna was mounted between the electrodes by one teardrop of Spectra R360 electrically conductive gel (Syntech, Netherlands). The base of the antenna was connected to the reference electrode, while the terminal of tip-cut off antenna was connected to the recording electrode. An air stimulus controller CS-55 (Syntech, Netherlands) was used for air and chemical stimulants delivery with a constant flow of 10 ml/second flowed continuously over the antenna through the open end of the glass tube, which was positioned 1 cm from the antenna.
Twenty microliters of tested chemicals (100 µl/ml, 10% (v/v) dilution in paraffin oil except the hexadecanoic acid dissolved in hexane with 100 µg/ml) were applied to filter paper strips (1.5 cm×4 cm, Whatman No.1), and the solvent was allowed to evaporate for 30 sec before the paper strip was inserted into the glass Pasteur pipette cartridge (10 cm long, Fisher Scientific, Pittsburgh, Pennsylvania, USA). The chemicals were tested randomly, stimulus duration time was 0.5 second and an interval of at least 30 seconds was taken between stimulations for antennal recovery. Chemical odorants used for the EAG recordings are the same as used in the binding assays. […] The paraffin oil (Fluka, Buchs, Switzerland) was used to dissolve the chemicals and treated as control compound [71]. Each chemical was tested against six individual male and female antennae, and each antenna was tested three times. The signals were passed through a high impedance amplifier (CS-05 model, Syntech, the Netherlands), EAG responses were initially measured in millivolts (peak height of depolarization) and then converted to normalized responses by the Syntech EAG 2000 program (Syntech, the Netherlands). Response to the solvent control was subtracted from all normalized response and the normalized EAG responses were expressed as a percentage to the reference compound response. All results are presented as mean (±SE) normalized EAG responses. EAG responses between male and female individuals were compared with the Student t-test using SAS software.

AlinCSP2 [1] = target: T1, AlinCSP2 (Adelphocoris lineolatus, UniProt E7BLG5); assay: biochemical; format: binding; conditions: for Ki: Figure 7B legend
Protocol: as §1, §2
(§4) For determining binding constants, the intensity values corresponding to the maximum fluorescence emission were plotted against free ligand concentration. Bound ligand was evaluated from the values of fluorescence intensity assuming the protein was 100% active, with a stoichiometry of 1∶1 protein:ligand at saturation. The curves were linearized using Scatchard Plot.

AlinCSP1 [2] = target: T2, AlinCSP1 (Adelphocoris lineolatus, UniProt J7EJ71); assay: biochemical; format: binding; conditions: for Ki: Figure 7B legend
Protocol: as §1, §2, §4

AlinCSP3 [3] = target: T3, AlinCSP3 (Adelphocoris lineolatus, UniProt E7BLG4); assay: biochemical; format: binding; conditions: for Ki: Figure 7B legend
Protocol: as §1, §2, §4

AlinCSP2 [4] = target: T1, AlinCSP2; assay: Binding of fluorescent probe 1-NPN to AlinCSP2 (titration, Scatchard plot); conditions: 2 µM protein, 1-NPN 2-16 µM, read-out: dissociation constant of the AlinCSP2/1-NPN complex
Protocol: as §1, §2, §3

AlinCSP1 [5] = target: T2, AlinCSP1; assay: Binding of fluorescent probe 1-NPN to AlinCSP1 (titration, Scatchard plot); conditions: 2 µM protein, 1-NPN 2-16 µM, read-out: dissociation constant of the AlinCSP1/1-NPN complex
Protocol: as §1, §2, §3

AlinCSP3 [6] = target: T3, AlinCSP3; assay: Binding of fluorescent probe 1-NPN to AlinCSP3 (titration, Scatchard plot); conditions: 2 µM protein, 1-NPN 2-16 µM, read-out: dissociation constant of the AlinCSP3/1-NPN complex
Protocol: as §1, §2, §3

[7] = u.d. = KD not calculated because IC50>50 µM, read-out: KD (µM) AlinCSP2, given as u.d.
[8] = u.d. = KD not calculated because IC50>50 µM, read-out: KD (µM) AlinCSP1, given as u.d.
[9] = u.d. = KD not calculated because IC50>50 µM, read-out: KD (µM) AlinCSP3, given as u.d.
[10] = KD (µM) AlinCSP1, 1-NPN and protein at 2 µM, 50 mM Tris-HCl pH 7.4, KD calculated from IC50, mean of three measurements
[11] = KD (µM) AlinCSP3, 1-NPN and protein at 2 µM, 50 mM Tris-HCl pH 7.4, KD calculated from IC50, mean of three measurements

T1 sequence (E7BLG5 entry or part of it): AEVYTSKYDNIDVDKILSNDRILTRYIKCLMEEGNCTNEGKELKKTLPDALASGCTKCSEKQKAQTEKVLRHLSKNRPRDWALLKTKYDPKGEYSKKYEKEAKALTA
T3 sequence (E7BLG4 entry or part of it): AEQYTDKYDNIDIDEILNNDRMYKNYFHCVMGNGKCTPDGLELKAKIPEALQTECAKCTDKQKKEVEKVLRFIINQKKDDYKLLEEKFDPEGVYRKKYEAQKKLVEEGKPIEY
T2 sequence (J7EJ71 entry or part of it): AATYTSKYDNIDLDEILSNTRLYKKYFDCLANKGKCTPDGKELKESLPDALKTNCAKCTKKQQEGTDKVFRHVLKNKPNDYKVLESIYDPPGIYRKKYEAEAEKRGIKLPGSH

In the case of `CCC/C=C/COC(=O)CCC` [(E)-2-Hexenyl butyrate], the “binding to the three CSPs in words” value (AlinCSP1-3) is reported as “failed to bind with any of the three CSPs”, the “EAG response in words” value (A. lineolatus antennae) is reported as “elicited significant antennal responses from both male and female; also recorded: elicited high EAG responses” and the Ki (AlinCSP2 [1]) is reported as 113 µM. For the same compound, the Kd (AlinCSP2 [1]; [7]) was > 50 µM, the Kd (AlinCSP1 [2]; [8]) was > 50 µM and the Ki (AlinCSP3 [3]) was 148 µM. The Kd (AlinCSP3 [3]; [9]) was > 50 µM.
In the case of `c1ccc(Nc2cccc3ccccc23)cc1` [1-NPN, N-phenyl-1-naphthylamine], the Kd (AlinCSP2 [4]) is reported as 1.92 µM, the Kd (AlinCSP1 [5]) is reported as 1.83 µM and the Kd (AlinCSP3 [6]) is reported as 4.45 µM.
In the case of `CCCC(=O)OCC` [Ethyl butyrate], the “binding to the three CSPs in words” value (AlinCSP1-3) is reported as “failed to bind with any of the three CSPs”, the “EAG response in words” value (A. lineolatus antennae) is reported as “elicited significant antennal responses from both male and female; also recorded: elicited high EAG responses” and the Ki (AlinCSP2 [1]) is reported as 92.5 µM. For the same compound, the Kd (AlinCSP2 [1]; [7]) was > 50 µM, the Ki (AlinCSP1 [2]) was 95.2 µM and the Kd (AlinCSP1 [2]; [8]) was > 50 µM. For the same compound, the Ki (AlinCSP3 [3]) was 101 µM and the Kd (AlinCSP3 [3]; [9]) was > 50 µM.
With `CCCCCCCCCCCCCCCC(=O)O` [hexadecanoic acid] the IC50 (AlinCSP1-3; displacement of 1-NPN, all three CSPs) was > 50 µM, the “EAG response in words” value (A. lineolatus antennae) was “did not elicit notably EAG responses” and the Ki (AlinCSP2 [1]) was 137 µM. The Kd (AlinCSP2 [1]; [7]) was > 50 µM, the Ki (AlinCSP1 [2]) was 118 µM and the Kd (AlinCSP1 [2]; [8]) was > 50 µM. For the same compound, the Kd (AlinCSP3 [3]; [9]) was > 50 µM.
`CCCCC(C)O` (centres unmarked) [2-Hexanol] was tested, and the “EAG response, male versus female antennae” value (A. lineolatus antennae) was “significantly higher EAG responses from female antennae than from male antennae”, the Kd (AlinCSP2 [1]; [7]) was > 50 µM and the Kd (AlinCSP1 [2]; 1-NPN and protein at 2 µM, 50 mM Tris-HCl pH 7.4, KD calculated from IC50, mean of three measurements, read-out: KD (µM) AlinCSP1) was 45.4 ± 2.43 µM. It also gave a Kd (AlinCSP3 [3]; 1-NPN and protein at 2 µM, 50 mM Tris-HCl pH 7.4, KD calculated from IC50, mean of three measurements, read-out: KD (µM) AlinCSP3) of 37.1 ± 1.01 µM.
`C=C1CC/C=C(\C)CC[C@@H]2[C@@H]1CC2(C)C` [β-Caryophyllene] was tested, and the “EAG response in words” value (A. lineolatus antennae) was “no notable EAG response”, the “binding to AlinCSP2 in words” value (AlinCSP2 [1]) was “failed to bind with AlinCSP2” and the Kd (AlinCSP2 [1]; KD (µM) AlinCSP2, given as u.d., u.d. = KD not calculated because IC50>50 µM) was > 50 µM. The Kd (AlinCSP1 [2]; [10]) was 9.22 ± 1.08 µM and the Kd (AlinCSP3 [3]; [11]) was 12.3 ± 2.42 µM.
In the case of `CCCCC(C)=O` [2-Hexanone], the “EAG response, male versus female antennae” value (A. lineolatus antennae) is reported as “significantly higher EAG responses from male antennae than from female antennae”, the Kd (AlinCSP2 [1]; KD (µM) AlinCSP2, 1-NPN and protein at 2 µM, 50 mM Tris-HCl pH 7.4, KD calculated from IC50, mean of three measurements) is reported as 20.4 ± 1.82 µM and the Kd (AlinCSP1 [2]; [10]) is reported as 19.5 ± 1.73 µM. For the same compound, the Kd (AlinCSP3 [3]; [11]) was 22.5 ± 1.88 µM.
